Assay results published in US12275720B2, “Small molecule inhibitors of galectin-3” (BRISTOL MYERS SQUIBB, priority 2020, dated 2025).

molecular target: His-tagged recombinant human Gal-3 (hGal-3) (Homo sapiens, UniProt P17931); experiment: Gal 3 HTRF Assay; format: binding; conditions: HTRF assay (default), 15 nM hGal-3, 15 nM B-ASF; read-out: hGal3 IC50 (HTRF)
Description: • ASSAY BUFFER Composition: 25 mM HEPES, 100 mM NaCl, 0.005% Tween 20, 0.05% BSA prepared in sterile water (all reagents from Sigma). Controls: • Positive Control: 100% DMSO (1 μL)+His-tagged hGal-3 (20 μL)+B-ASF (20 μL)+Anti-His Terbium Antibody (5 μL)+Strep d2 Antibody (5 μL). • Negative Control: 100% DMSO (1 μL)+His-tagged hGal-3(20 μL)+Anti His Terbium Antibody (5 μL)+Strep d2 Antibody (5 μL). Stocks Preparation:
PROTOCOL: The Gal-3 assays were performed in 384 white Opti plates in three replicates at room temperature with gentle shaking at 250-300 rpm From the original stocks, […] working stock concentrations of His-tagged recombinant human Gal-3 (hGal-3) and that of B-ASF were prepared. From the working stock, 20 μL of hGal-3 (15 nM) and 20 μL B-ASF (15 nM) were added to the plates. In Negative Control, only hGal-3 was added. A concentration range of 50× working stocks were prepared for the compounds in 100% DMSO. Aliquots of 1 μL of the compounds were added to the wells and pre-incubated with 20 μL hGal-3 per well for 30 minutes Then 20 μL B-ASF were added and incubated for another 1 hour. To detect the signal, 5 μL (final conc. of 1.0 nM) terbium labelled Anti-His antibody was added and incubated for 30 min followed by adding 5 μL (final conc. of 20 nM) Streptavidin d2 and incubation for another 1 hour. The assay signal was detected using HTRF screen protocol (Excitation wavelength=340 nm, emission wavelength=615 nm/665 nm) on Envision 2104 Multilabel Reader. Data analysed using Toolset and Curve Master. Results are reported in the experimental section (IC50 in μM). All IC50 reported were generated using the HTRF assay except when specifically indicated.

Sequence of His-tagged recombinant human Gal-3 (hGal-3) (P17931 whole entry): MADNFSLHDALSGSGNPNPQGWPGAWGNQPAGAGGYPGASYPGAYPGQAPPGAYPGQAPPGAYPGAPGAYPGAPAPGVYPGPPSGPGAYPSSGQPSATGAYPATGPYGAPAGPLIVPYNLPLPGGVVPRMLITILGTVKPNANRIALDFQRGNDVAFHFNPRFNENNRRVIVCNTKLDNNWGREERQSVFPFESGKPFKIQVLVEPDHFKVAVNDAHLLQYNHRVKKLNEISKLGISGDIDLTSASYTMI

Row | Compound | IC50 [nM]
1 | (2R, 3R, 4S, 5R, 6R)-4-(4-(3-fluorophenyl)-1H-1,2,3-triazol-1-yl)-N-((1S,2R,3R)-3-(4-(3-fluorophenyl)-1H-1,2,3-triazol-1-yl)-2-hydroxycyclohexyl)-5-hydroxy-6-(hydroxymethyl)-3-methoxytetrahydro-2H-pyran-2-carboxamide [Example 1a] | 290
2 | (2R,3R,4S,5R,6R)-4-(4-(3-fluorophenyl)-1H-1,2,3-triazol-1-yl)-N-((1R,2S,3S)-3-(5-(3-fluorophenyl)-1H-1,2,3-triazol-1-yl)-2-hydroxycyclohexyl)-5-hydroxy-6-(hydroxymethyl)-3-methoxytetrahydro-2H-pyran-2-carboxamide [Example 6b] | 900
3 | (2R,3R,4S,5R,6R)-4-(4-(3-fluorophenyl)-1H-1,2,3-triazol-1-yl)-N-((3R,4S,5S)-5-(4-(3-fluorophenyl)-1H-1,2,3-triazol-1-yl)-4-hydroxytetrahydro-2H-pyran-3-yl)-5-hydroxy-6-(hydroxymethyl)-3-methoxytetrahydro-2H-pyran-2-carboxamide [Example 20b] | 90
4 | (2R,3R,4S,5R,6R)-N-((1R,2S,3S)-3-(4-fluoro-1H-indazol-1-yl)-2-hydroxycyclohexyl)-4-(4-(3-fluorophenyl)-1H-1,2,3-triazol-1-yl)-5-hydroxy-6-(hydroxymethyl)-3-methoxytetrahydro-2H-pyran-2-carboxamide [Example 7b] | 23000
5 | (2R,3R,4S,5R,6R)-4-(4-(3-fluorophenyl)-1H-1,2,3-triazol-1-yl)-N-((1S,2R,3R)-3-(3-(3-fluorophenyl)-1H-1,2,4-triazol-1-yl)-2-hydroxycyclohexyl)-5-hydroxy-6-(hydroxymethyl)-3-methoxytetrahydro-2H-pyran-2-carboxamide [Example 9b] | > 100000
6 | (2R,3R,4S,5R,6R)-4-(4-(3-fluorophenyl)-1H-1,2,3-triazol-1-yl)-N-((1S,2R,3R)-3-(3-(3-fluorophenyl)-1H-1,2,4-triazol-1-yl)-2-hydroxycyclohexyl)-5-hydroxy-6-(hydroxymethyl)-3-methoxytetrahydro-2H-pyran-2-carboxamide [Example 9a] | 500
7 | CO[C@@H]1[C@@H](n2cc(-c3cccc(F)c3)nn2)[C@@H](O)[C@@H](CO)O[C@H]1C(=O)N[C@@H]1CCC[C@H](n2cc3c(F)cccc3n2)[C@H]1O (single isomer, unassigned) [Example 8] | 570
8 | (2R,3R,4S,5R,6R)-N-((1R,2S,3S)-3-(4-fluoro-1H-indazol-1-yl)-2-hydroxycyclohexyl)-4-(4-(3-fluorophenyl)-1H-1,2,3-triazol-1-yl)-5-hydroxy-6-(hydroxymethyl)-3-methoxytetrahydro-2H-pyran-2-carboxamide [Example 7a] | 640
9 | (2R,3R,4S,5R,6R)-4-(4-(3-fluorophenyl)-1H-1,2,3-triazol-1-yl)-N-((1R,2S,3S)-3-(5-(3-fluorophenyl)-1H-1,2,3-triazol-1-yl)-2-hydroxycyclohexyl)-5-hydroxy-6-(hydroxymethyl)-3-methoxytetrahydro-2H-pyran-2-carboxamide [Example 6a] | 27000

The next lines start with the values.

Row | IC50 [nM] | Compound
10 | 36000 | (2R,3R,4S,5R,6R)-4-(4-(3-fluorophenyl)-1H-1,2,3-triazol-1-yl)-N-((3R,4S,5S)-5-(4-(3-fluorophenyl)-1H-1,2,3-triazol-1-yl)-4-hydroxytetrahydro-2H-pyran-3-yl)-5-hydroxy-6-(hydroxymethyl)-3-methoxytetrahydro-2H-pyran-2-carboxamide [Example 20a]
11 | 3500 | (2R,3R,4S,5R,6R)-4-(4-(3-fluorophenyl)-1H-1,2,3-triazol-1-yl)-N-((3R,4S,5S)-5-(4-(3-fluorophenyl)-1H-1,2,3-triazol-1-yl)-4-hydroxypiperidin-3-yl)-5-hydroxy-6-(hydroxymethyl)-3-methoxy-N-methyltetrahydro-2H-pyran-2-carboxamide [Example 16a]
12 | > 10000 | CO[C@@H]1[C@@H](n2cc(-c3cccc(F)c3)nn2)[C@@H](O)[C@@H](CO)O[C@H]1C(=O)N(C)[C@H]1COC[C@@H](n2ncc3cc(F)cnc32)[C@@H]1O [Example 22a, (2R,3R,4S,5R,6R)-N-((3S,4R,5R)-5-(5-fluoro-1H-pyrazolo[3,4-b]pyridin-1-yl)-4-hydroxytetrahydro-2H-pyran-3-yl)-4-(4-(3-fluorophenyl)-1H-1,2,3-triazol-1-yl)-5-hydroxy-6-(hydroxymethyl)-3-methoxy-N-methyltetrahydro-2H-pyran-2-carboxamide]
13 | 50 | (2R,3R,4S,5R,6R)-4-(4-(3-fluorophenyl)-1H-1,2,3-triazol-1-yl)-N-((3R,4S,5S)-5-(4-(3-fluorophenyl)-1H-1,2,3-triazol-1-yl)-4-hydroxypiperidin-3-yl)-3,5-dihydroxy-6-(hydroxymethyl)-N-methyltetrahydro-2H-pyran-2-carboxamide [Example 18b]
14 | 91 | (2R,3R,4S,5R,6R)-4-(4-(3-fluorophenyl)-1H-1,2,3-triazol-1-yl)-N-((1S,2R,3R)-3-(4-(3-fluorophenyl)-1H-1,2,3-triazol-1-yl)-2-hydroxycyclohexyl)-5-hydroxy-6-(hydroxymethyl)-3-methoxy-N-methyltetrahydro-2H-pyran-2-carboxamide [Example 10b]
15 | 20 | CO[C@@H]1[C@@H](n2cc(-c3cccc(F)c3)nn2)[C@@H](O)[C@@H](CO)O[C@H]1C(=O)N(C)[C@H]1CN(C)C[C@@H](n2cc(-c3cccc(F)c3)nn2)[C@@H]1O [Example 19, (2R,3R,4S,5R,6R)-4-(4-(3-fluorophenyl)-1H-1,2,3-triazol-1-yl)-N-((3S,4R,5R)-5-(4-(3-fluorophenyl)-1H-1,2,3-triazol-1-yl)-4-hydroxy-1-methylpiperidin-3-yl)-5-hydroxy-6-(hydroxymethyl)-3-methoxy-N-methyltetrahydro-2H-pyran-2-carboxamide]
16 | 1800 | (2R,3R,4S,5R,6R)-4-(4-(3-fluorophenyl)-1H-1,2,3-triazol-1-yl)-N-((3R,4S,5S)-5-(4-(3-fluorophenyl)-1H-1,2,3-triazol-1-yl)-4-hydroxypiperidin-3-yl)-3,5-dihydroxy-6-(hydroxymethyl)-N-methyltetrahydro-2H-pyran-2-carboxamide [Example 18a]
17 | 5500 | (2R,3R,4S,5R,6R)-4-(4-(3-fluorophenyl)-1H-1,2,3-triazol-1-yl)-N-((1S,2R,3R)-3-(4-(3-fluorophenyl)-1H-1,2,3-triazol-1-yl)-2-hydroxycyclohexyl)-5-hydroxy-6-(hydroxymethyl)-3-methoxy-N-methyltetrahydro-2H-pyran-2-carboxamide [Example 10a]
18 | 44 | (2R,3R,4S,5R,6R)-4-(4-(3-fluorophenyl)-1H-1,2,3-triazol-1-yl)-N-((3R,4S,5S)-5-(4-(3-fluorophenyl)-1H-1,2,3-triazol-1-yl)-4-hydroxypiperidin-3-yl)-5-hydroxy-6-(hydroxymethyl)-3-methoxy-N-methyltetrahydro-2H-pyran-2-carboxamide [Example 16b]
19 | 130 | (2R,4R,5R,6R)-4-(4-(3-fluorophenyl)-1H-1,2,3-triazol-1-yl)-N-((3R,4S,5S)-5-(4-(3-fluorophenyl)-1H-1,2,3-triazol-1-yl)-4-hydroxypiperidin-3-yl)-5-hydroxy-6-(hydroxymethyl)-N-methyltetrahydro-2H-pyran-2-carboxamide [Example 17b]
20 | 5200 | (2R,4R,5R,6R)-4-(4-(3-fluorophenyl)-1H-1,2,3-triazol-1-yl)-N-((3R,4S,5S)-5-(4-(3-fluorophenyl)-1H-1,2,3-triazol-1-yl)-4-hydroxypiperidin-3-yl)-5-hydroxy-6-(hydroxymethyl)-N-methyltetrahydro-2H-pyran-2-carboxamide [Example 17a]
21 | 30 | CO[C@@H]1[C@@H](n2cc(-c3cccc(F)c3)nn2)[C@@H](O)[C@@H](CO)O[C@H]1C(=O)N(C)[C@H]1COC[C@@H](n2cc(-c3cccc(F)c3)nn2)[C@@H]1O (single isomer, unassigned) [Example 21]

molecular target: T1, hGalectin-3 (Homo sapiens, UniProt P17931); experiment: Gal-3 ELISA Assay (hGalectin-3 neutralization binding assay); conditions: ASF-coated plate, 15 nM hGalectin-3, read-out: hGal3 IC50 (ELISA)
T1 construct: made in house
T1 sequence (P17931 whole entry): as above

Row | Compound | IC50 [nM]
22 | (2R, 3R, 4S, 5R, 6R)-4-(4-(3-fluorophenyl)-1H-1,2,3-triazol-1-yl)-N-((1S,2R,3R)-3-(4-(3-fluorophenyl)-1H-1,2,3-triazol-1-yl)-2-hydroxycyclohexyl)-5-hydroxy-6-(hydroxymethyl)-3-methoxytetrahydro-2H-pyran-2-carboxamide [Example 1a] | 700
23 | (2R, 3R, 4S, 5R, 6R)-4-(4-(3-fluorophenyl)-1H-1,2,3-triazol-1-yl)-N-((1S,2R,3R)-3-(4-(3-fluorophenyl)-1H-1,2,3-triazol-1-yl)-2-hydroxycyclohexyl)-5-hydroxy-6-(hydroxymethyl)-3-methoxytetrahydro-2H-pyran-2-carboxamide [Example 1b] | 16000
